Patent publication US10851116B2, “Bicyclic amines as novel JAK kinase inhibitors” (LEO Pharma A/S, priority 2017, dated 2020)

Columns and labels:
[1] = biological target: TYK2 (Homo sapiens (Human), UniProt P29597); assay: JAK kinase assay (HTRF), TYK2; type: biochemical; settings: catalytic domain (aa 871-1187), GST-tag, ATP at Km (13 μM)
Description: (§1) Human baculovirus-expressed JAK1, 2, 3 and TYK2 were purchased from Carna Biosciences, Inc. All four purified enzymes contain only the catalytic domain. JAK1 (aa 850-1154) and TYK2 (aa 871-1187) are expressed with an N-terminally fused GST-tag, and JAK2 and JAK3 with an N-terminally fused His-tag.
(§2) Inhibition of phosphorylation of a synthetic peptide was measured in an HTRF-based assay using the TK substrate-Biotin from the Cisbio HTRFKinEASE TK kit. First, 2 μl of TK solution (TK substrate-biotin in kinase buffer [1× enzymatic buffer from HTRFKinEASE TK kit, 1 mM DTT]) is added to a plate containing 1 μl prediluted compound (final assay concentration DMSO: 0.75%). Then, 5 μl kinase-ATP mix (prepared in kinase buffer) is added to the wells and the plates are incubated at RT for 20-30 min. For all four kinases a concentration of ATP that corresponded to the Km for ATP was used. The final concentrations of buffers, substrate, kinase and ATP were: JAK1: 50 mM Hepes buffer pH 7.0, 0.01% BSA, 10 mM MgCl2, 1 mM DTT, 7 μM ATP, 50 nM SEB, 1 μM TK Substrate-Biotin and 5 ng JAK1; JAK2: 50 mM Hepes buffer pH 7.0, 0.01% BSA, 5 mM MgCl2, 1 mM DTT, 4 μM ATP, 1 μM TK Substrate-Biotin and 0.1 ng JAK2; JAK3: 50 mM Hepes buffer pH 7.0, 0.01% BSA, 5 mM MgCl2, 1 mM DTT, 2 μM ATP, 1 μM TK Substrate-Biotin and 0.3 ng JAK3; TYK2: 50 mM Hepes buffer pH 7.0, 0.01% BSA, 5 mM MgCl2, 1 mM DTT, 13 μM ATP, 50 nM SEB, 1 μM TK Substrate-Biotin and 0.8 ng TYK2. Thereafter, the kinase reaction is stopped by adding 4 μl detection mix (final concentrations: 50 mM Hepes buffer pH 7.0, 0.01% BSA, 0.8 M KF, 20 mM EDTA, 42 nM Streptavidin-XL665 and 1:400 STK Ab Cryptate) and the plates are incubated overnight in the dark. The HTRF signal is read using an Envision plate reader.

[2] = biological target: JAK1 (Homo sapiens (Human), UniProt P23458); assay: JAK kinase assay (HTRF), JAK1; type: biochemical; settings: catalytic domain (aa 850-1154), GST-tag, ATP at Km (7 μM)
Description: as §1, §2

[3] = in vitro metabolic stability in human liver microsomes; type: in vitro ADME; settings: compound 0.5 μM, human liver microsomes 0.5 mg/mL, NADPH, 40 min, 37° C.; for CLint scaled at 0.5 μM: human, liver microsomes, read-out: Human liver microsome Clapp (apparent intrinsic clearance)
Description: To assess the in vitro metabolic stability, the compounds (0.5 μM) were incubated in duplicates with human liver microsomes (0.5 mg/mL) in phosphate buffer and NADPH, in 96-well plates for 40 min (37° C.), using a liquid handling robot (Hamilton Microlab Star). Sample aliquots were taken at 0, 5, 10, 20 and 40 min, and dispensed into cold acetonitrile, in order to stop the reactions. The plates were centrifuged for 30 minutes before the samples were analyzed using liquid chromatography coupled to a time-of-flight mass spectrometer (AB Sciex API5600). The compound depletion over time was used to estimate the elimination rate constant, from which the apparent intrinsic clearance, Clapp, was calculated and the values are listed in table 2.

[4] = biological target: JAK2 (Homo sapiens (Human), UniProt O60674); assay: JAK kinase assay (HTRF), JAK2; type: biochemical; settings: catalytic domain, His-tag, ATP at Km (4 μM)
Description: as §1, §2

[5] = biological target: JAK3 (Homo sapiens (Human), UniProt P52333); assay: JAK kinase assay (HTRF), JAK3; type: biochemical; settings: catalytic domain, His-tag, ATP at Km (2 μM)
Description: as §1, §2

Chain of JAK1 (P23458 850-1154): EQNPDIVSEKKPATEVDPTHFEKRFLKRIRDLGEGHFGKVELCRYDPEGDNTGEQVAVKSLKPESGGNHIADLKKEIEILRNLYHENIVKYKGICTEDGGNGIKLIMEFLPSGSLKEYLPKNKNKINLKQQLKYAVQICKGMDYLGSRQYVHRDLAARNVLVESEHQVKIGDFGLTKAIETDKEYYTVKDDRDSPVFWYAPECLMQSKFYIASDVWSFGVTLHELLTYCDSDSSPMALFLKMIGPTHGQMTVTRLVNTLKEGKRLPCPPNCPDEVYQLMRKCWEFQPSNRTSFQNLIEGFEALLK
Chain of JAK3 (P52333 822-1111): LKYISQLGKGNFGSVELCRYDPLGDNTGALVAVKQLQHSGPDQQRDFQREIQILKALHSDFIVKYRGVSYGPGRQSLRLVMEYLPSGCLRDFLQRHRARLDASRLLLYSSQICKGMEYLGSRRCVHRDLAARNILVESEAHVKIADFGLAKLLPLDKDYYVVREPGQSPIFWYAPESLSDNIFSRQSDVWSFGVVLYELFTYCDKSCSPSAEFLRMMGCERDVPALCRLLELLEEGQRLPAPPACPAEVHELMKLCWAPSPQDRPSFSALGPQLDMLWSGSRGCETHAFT
Chain of TYK2 (P29597 871-1187): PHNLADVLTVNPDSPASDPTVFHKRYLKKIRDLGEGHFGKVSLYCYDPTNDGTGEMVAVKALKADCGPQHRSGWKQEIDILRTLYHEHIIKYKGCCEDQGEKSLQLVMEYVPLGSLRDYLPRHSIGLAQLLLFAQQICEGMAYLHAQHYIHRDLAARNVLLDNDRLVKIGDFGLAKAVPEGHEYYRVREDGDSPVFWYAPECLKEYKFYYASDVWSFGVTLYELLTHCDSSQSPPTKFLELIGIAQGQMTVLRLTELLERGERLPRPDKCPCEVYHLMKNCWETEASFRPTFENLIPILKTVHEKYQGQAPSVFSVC
Chain of JAK2 (O60674 849-1124): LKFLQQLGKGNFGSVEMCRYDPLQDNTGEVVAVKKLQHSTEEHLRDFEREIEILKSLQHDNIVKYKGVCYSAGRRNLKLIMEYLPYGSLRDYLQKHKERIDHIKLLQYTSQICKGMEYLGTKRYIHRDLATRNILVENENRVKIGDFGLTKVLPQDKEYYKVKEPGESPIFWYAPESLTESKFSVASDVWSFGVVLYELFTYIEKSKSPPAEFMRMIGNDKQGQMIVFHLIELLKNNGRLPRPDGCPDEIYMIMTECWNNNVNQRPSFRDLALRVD

SMILES | EC50 [1] [nM] | EC50 [2] [nM] | CLint scaled at 0.5 μM [3] [mL/min/kg] | EC50 [4] [nM] | EC50 [5] [nM] | Human liver microsome Clapp (apparent intrinsic clearance) [3] [mL/min/kg]
CC12CN(c3ccc(C#N)cn3)C[C@@H]1CCN(c1ncnc3[nH]ccc13)C2 (stereo in doubt) [Example 34, 6-[(3aR,7aR)-3a-methyl-5-(7H-pyrrolo[2,3-d]pyrimidin-4-yl)-1,3,4,6,7,7a-hexahydropyrrolo[3,4-c]pyridin-2-yl]pyridine-3-carbonitrile] | 7010 | 192 | 136 | 927 | 1170 | –
C[C@]12CN(C#N)CC[C@H]1CCN(c1ncnc3[nH]ccc13)C2 [Example 1, (4aR,8aS)-8a-methyl-7-(7H-pyrrolo[2,3-d]pyrimidin-4-yl)-3,4,4a,5,6,8-hexahydro-1H-2,7-naphthyridine-2-carbonitrile] | 13 | 1 | 54 | 4 | 15 | –
C[C@@]12CN(C#N)CC[C@@H]1CCN(c1ncnc3[nH]ccc13)C2 [Example 3, (4aS,8aR)-8a-methyl-7-(7H-pyrrolo[2,3-d]pyrimidin-4-yl)-3,4,4a,5,6,8-hexahydro-1H-2,7-naphthyridine-2-carbonitrile] | 1480 | 237 | 60 | 428 | 924 | –
CC[C@@]12CN(c3ncnc4[nH]ccc34)CC[C@@H]1CCN(S(N)(=O)=O)C2 [Example 18, (4aR,8aS)-8a-ethyl-7-(7H-pyrrolo[2,3-d]pyrimidin-4-yl)-3,4,4a,5,6,8-hexahydro-1H-2,7-naphthyridine-2-sulfonamide] | 17 | 2 | – | 3 | 2 | 127
CC[C@]12CN(C#N)CC[C@H]1CCN(c1ncnc3[nH]ccc13)C2 [Example 22, (4aR,8aS)-8a-ethyl-7-(7H-pyrrolo[2,3-d]pyrimidin-4-yl)-3,4,4a,5,6,8-hexahydro-1H-2,7-naphthyridine-2-carbonitrile] | 6 | 1 | 185 | 2 | 6 | –
C[C@]12CN(C#N)C[C@H]1CCN(c1ncnc3[nH]ccc13)C2 [Example 29, (3aS,7aS)-3a-methyl-5-(7H-pyrrolo[2,3-d]pyrimidin-4-yl)-1,3,4,6,7,7a-hexahydropyrrolo[3,4-c]pyridine-2-carbonitrile] | 123 | 10 | 10 | 35 | 118 | –
